Results from US4154727A, “Dipeptide derivatives and their production” (Shionogi & Co., Ltd., priority 1974, dated 1979).

How the values were obtained:
[1] = test system: DS male mice; test: Taming activity (inhibition of fighting responses); format: in vivo; settings: given 60 minutes prior; inhibition of electroshock-induced fighting responses, 5 pairs of mice
Description: This test was measured on DS male mice. […] These pairs of mice were selected in the morning and used for drug test in the afternoon. The test compound was administered to both mice of the pairs 60 minutes prior to the experiment. Results were obtained as the mean percentage of inhibition of fighting responses in a group of 5 pairs and shown by ED50 [Tedeschi, et al.: J. Pharmacol Exp. Thev., 125, 28-34 (1959)].

[2] = test system: DS male mice; test: Rotarod performance activity; format: in vivo; settings: fall from rod (5 rotations per minute) within less than 2 minutes; 10 mice per dose
Description: (3) Rotarod performance activity
This test was measured on DS male mice. The mouse was put on a scraped rod of wood, 3 cm in diameter, turning at the rate of five rotations per minute. The mice that could remain on the rod for three or more minutes in successive trials were selected and placed in a group of 10 mice for each dose. If the mouse fell down from the rod within less than 2 minutes, the test compound was considered to be effective. Results were shown by ED50 [Dunham, et al.: J. Am. Pharm. Assoc., 46, 208 (1957)].

SMILES	Taming activity ED50 [1]	Rotarod performance ED50 [2]
CN(C(=O)CNC(=O)CN)c1ccc(Cl)cc1C(=O)c1ccccc1Cl.O [Compound No. 2, 2-o-chlorobenzoyl-4-chloro-N-methyl-N^α -glycyl-glycinanilide hydrate]	3.0 mg/kg	
CN(C(=O)CNC(=O)CN)c1ccc(Cl)cc1C(=O)c1ccccc1F.Cl [Compound No. 3, 2-o-fluorobenzoyl-4-chloro-N-methyl-N^α -glycyl-glycinanilide hydrochloride]	1.6 mg/kg	17.0 mg/kg
